This passage reports MIC results from patent US4363807A, “Cepham compounds” (Fujisawa Pharmaceutical Company, Limited, priority 1978, dated 1982).

Test [1] relates to Proteus mirabilis 18. In words: In vitro antibacterial activity, two-fold agar-plate dilution method (MIC), Proteus mirabilis 18. It is filed as cell-based. The following applies: heart infusion agar, 37° C., 20 hours, read-out: MIC (minimal inhibitory concentration). How it is done:
(§1) 1. In vitro antibacterial activity: (1) Test method: In vitro antibacterial activity was determined by the two-fold agar-plate dilution method as described below. One loopful of an overnight culture of each test strain in Trypticase soy broth was streaked on heart infusion agar (HI-agar) containing graded concentration of the test compound and incubated at 37° C. for 20 hours. The minimal inhibitory concentration (MIC) was expressed in μg/ml.

Test [2] deals with Klebsiella pneumoniae 20. As to the kind of experiment: In vitro antibacterial activity, two-fold agar-plate dilution method (MIC), Klebsiella pneumoniae 20. The class given is cell-based. The note with it: heart infusion agar, 37° C., 20 hours, read-out: MIC (minimal inhibitory concentration). How it is done:
as §1

≈ marks a conversion by molar mass, not a printed value.

On to `CO/N=C(\C(=O)NC1C(=O)N2C(C(=O)O)C(=COC(C)=O)CSC12)c1csc(N)n1` (stereo not drawn) [Test compound, 7-[2-(2-Aminothiazol-4-yl)-2-methoxyiminoacetamido]-3-acetoxymethylenecepham-4-carboxylic acid (syn isomer)], for which the MIC in test [1] and in test [2] was 6.25 µg/mL (≈ 13.7 µM) in each case.
